Results from US8486933B2, “Pyrimidine inhibitors of kinase activity” (AbbVie Inc., priority 2009, dated 2013).
pIC50: −log10 of the molar value.

Target: T1, human IGF-1R (Homo sapiens, UniProt P08069)
T1 construct: human IGF-1R, amino acids 954-1367 expressed by baculovirus in Sf21 cells; GST (C); purchased Cell Signaling Technology; host or cells: baculovirus in Sf21 cells
Test: IGF-1R homogenous time-resolved fluorescence (HTRF) in vitro kinase assay
Format: biochemical
Conditions: recombinant GST-tagged human IGF-1R aa 954-1367; ATP 50 μM; 60 minutes at room temperature
Description: IGF-1R kinase activity was assayed by a homogenous time-resolved fluorescence (HTRF) in vitro kinase assay (Mathis, G., HTRF(R) Technology. J Biomol Screen, 1999. 4(6): p. 309-314). Specifically, 10 μL C-terminal GST-tagged, recombinant, human IGF-1R, amino acids 954-1367 expressed by baculovirus in Sf21 cells (Cell Singaling Technology) was mixed with 10 μL inhibitor (various concentrations, 2% final DMSO) and 10 μL of ATP (50 μM final concentration) in reaction buffer (50 mM HEPES, pH 7.5, 10 mM MgCl2, 2 mM MnCl2, 0.1% BSA and 1 mM DTT, 40 μL final volume). The reaction was initiated by addition of 10 μL of biotinylated peptide substrate (Biotin-Ahx-[…], 0.5 μM final concentration) in a black 384-well plate (Packard). […] The quenched reaction was allowed to stand at room temperature for 1 hour and then read in a time-resolved fluorescence detector (Envision, Perkin Elmer) at 615 nm and 665 nm simultaneously. The ratio between the signal of 615 nm and 665 nm was used in the calculation of the IC50.

T1 sequence (P08069 954-1367): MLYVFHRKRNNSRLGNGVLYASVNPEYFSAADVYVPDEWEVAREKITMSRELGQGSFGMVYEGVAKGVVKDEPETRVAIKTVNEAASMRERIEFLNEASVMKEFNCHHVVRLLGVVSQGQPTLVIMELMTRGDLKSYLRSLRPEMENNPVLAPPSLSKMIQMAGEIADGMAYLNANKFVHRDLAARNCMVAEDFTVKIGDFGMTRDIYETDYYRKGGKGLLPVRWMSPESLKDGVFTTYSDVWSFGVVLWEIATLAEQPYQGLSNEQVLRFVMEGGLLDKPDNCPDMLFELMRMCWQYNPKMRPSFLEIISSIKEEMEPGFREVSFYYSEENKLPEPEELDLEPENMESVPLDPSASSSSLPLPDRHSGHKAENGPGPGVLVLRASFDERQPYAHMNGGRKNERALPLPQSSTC

Row | SMILES | pIC50
1 | CCN1CCN(c2ccc(Nc3ncc(Br)c(Nc4ccc5[nH]c(CCc6ccccc6)nc5c4)n3)cc2)CC1 [Example 3, 5-bromo-N^2-[4-(4-ethylpiperazin-1-yl)phenyl]-N^4-[2-(2-phenylethyl)-1H-benzimidazol-5-yl]pyrimidine-2,4-diamine] | < 6.30
2 | COc1cc(N2CCC(N(C)C)CC2)ccc1Nc1ncc(Br)c(Nc2cc3cn[nH]c3cc2C)n1 [Example 21, 5-bromo-N^2-{4-[4-(dimethylamino)piperidin-1-yl]-2-methoxyphenyl}-N^4-(6-methyl-1H-indazol-5-yl)pyrimidine-2,4-diamine] | 6.30 to 7.00
3 | CCN1CCN(c2ccc(Nc3ncc(Br)c(Nc4ccc5[nH]c(C(F)(F)F)nc5c4)n3)cc2)CC1 [Example 1, 5-bromo-N^2-[4-(4-ethylpiperazin-1-yl)phenyl]-N^4-[2-(trifluoromethyl)-1H-benzimidazol-5-yl]pyrimidine-2,4-diamine] | < 6.30
4 | CCN1CCN(c2ccc(Nc3ncc(C)c(Nc4ccc5[nH]ncc5c4)n3)cc2)CC1 [Example 9, N^2-[4-(4-ethylpiperazin-1-yl)phenyl]-N^4-1H-indazol-5-yl-5-methylpyrimidine-2,4-diamine] | < 6.30
5 | CNC(=O)c1cc2c(cnn2C)cc1Nc1nc(Nc2ccc(N3CCC(N(C)C)CC3)cc2OC)ncc1Br [Example 35, 5-{[5-bromo-2-({4-[4-(dimethylamino)piperidin-1-yl]-2-methoxyphenyl}amino)pyrimidin-4-yl]amino}-N,1-dimethyl-1H-indazole-6-carboxamide] | 7.30 to 8.00
6 | CCS(=O)(=O)c1cc2c(cnn2C)cc1Nc1nc(Nc2ccc(N3CCS(=O)(=O)CC3)cc2)ncc1Br [Example 45, 5-bromo-N^2-[4-(1,1-dioxidothiomorpholin-4-yl)phenyl]-N^4-[6-(ethylsulfonyl)-1-methyl-1H-indazol-5-yl]pyrimidine-2,4-diamine] | 7.00 to 7.29
7 | CNC(=O)c1cc2c(cnn2C)cc1Nc1nc(Nc2ccc(N3CCN(C(C)C)CC3)cc2OC)ncc1Br [Example 44, 5-[(5-bromo-2-{[4-(4-isopropylpiperazin-1-yl)-2-methoxyphenyl]amino}pyrimidin-4-yl)amino]-N,1-dimethyl-1H-indazole-6-carboxamide] | 7.30 to 8.00
8 | COc1cc(N2CCC(N3CCN(C)CC3)CC2)ccc1Nc1ncc(Br)c(Nc2ccc3[nH]ncc3c2)n1 [Example 13, 5-bromo-N^4-1H-indazol-5-yl-N^2-{2-methoxy-4-[4-(4-methylpiperazin-1-yl)piperidin-1-yl]phenyl}pyrimidine-2,4-diamine] | 7.30 to 8.00
9 | COc1cc(N2CCC(N(C)C)CC2)ccc1Nc1ncc(Br)c(Nc2cccc3[nH]c(C)nc23)n1 [Example 16, 5-bromo-N^2-{4-[4-(dimethylamino)piperidin-1-yl]-2-methoxyphenyl}-N^4-(2-methyl-1H-benzimidazol-4-yl)pyrimidine-2,4-diamine] | 6.30 to 7.00
10 | COc1cc(N2CCC(N(C)C)CC2)ccc1Nc1ncc(Br)c(Nc2cc3cn(C)nc3cc2S(=O)(=O)C(C)C)n1 [Example 29, 5-bromo-N^2-{4-[4-(dimethylamino)piperidin-1-yl]-2-methoxyphenyl}-N^4-[6-(isopropylsulfonyl)-2-methyl-2H-indazol-5-yl]pyrimidine-2,4-diamine] | 6.30 to 7.00
11 | CCN1CCN(c2ccc(Nc3ncc(Br)c(Nc4cccc5[nH]c(C)nc45)n3)cc2)CC1 [Example 6, 5-bromo-N^2-[4-(4-ethylpiperazin-1-yl)phenyl]-N^4-(2-methyl-1H-benzimidazol-4-yl)pyrimidine-2,4-diamine] | < 6.30
12 | COc1cc(N2CCC(N(C)C)CC2)ccc1Nc1ncc(Br)c(Nc2ccc3sc(C)nc3c2)n1 [Example 22, 5-bromo-N^2-{4-[4-(dimethylamino)piperidin-1-yl]-2-methoxyphenyl}-N^4-(2-methyl-1,3-benzothiazol-5-yl)pyrimidine-2,4-diamine] | 7.00 to 7.29
13 | COc1cc(N2CCC(N(C)C)CC2)ccc1Nc1ncc(Cl)c(Nc2ccc3c(cnn3C)c2)n1 [Example 18, 5-chloro-N^2-{4-[4-(dimethylamino)piperidin-1-yl]-2-methoxyphenyl}-N^4-(1-methyl-1H-indazol-5-yl)pyrimidine-2,4-diamine] | 6.30 to 7.00

Further lines, results first:

Row | pIC50 | SMILES
14 | 7.30 to 8.00 | CCS(=O)(=O)c1cc2[nH]ncc2cc1Nc1nc(Nc2ccc(N3CCC(N(C)C)CC3)cc2)ncc1Br [Example 31, 5-bromo-N^2-{4-[4-(dimethylamino)piperidin-1-yl]phenyl}-N^4-[6-(ethylsulfonyl)-1H-indazol-5-yl]pyrimidine-2,4-diamine]
15 | 7.30 to 8.00 | COc1cc(N2CCC(N3CCN(C)CC3)CC2)ccc1Nc1ncc(Br)c(Nc2ccc3ncccc3c2)n1 [Example 49, 5-bromo-N^2-{2-methoxy-4-[4-(4-methylpiperazin-1-yl)piperidin-1-yl]phenyl}-N^4-quinolin-6-ylpyrimidine-2,4-diamine]
16 | 7.30 to 8.00 | COc1cc(N2CCC(N(C)C)CC2)ccc1Nc1ncc(Br)c(Nc2cc3cnn(C)c3cc2S(C)(=O)=O)n1 [Example 34, 5-bromo-N^2-{4-[4-(dimethylamino)piperidin-1-yl]-2-methoxyphenyl}-N^4-[1-methyl-6-(methylsulfonyl)-1H-indazol-5-yl]pyrimidine-2,4-diamine]
17 | > 8.00 | COc1cc(N2CCC(N(C)C)CC2)ccc1Nc1ncc(Br)c(Nc2cc3cnn(C)c3cc2S(=O)(=O)C(C)C)n1 [Example 27, 5-bromo-N^2-{4-[4-(dimethylamino)piperidin-1-yl]-2-methoxyphenyl}-N^4-[6-(isopropylsulfonyl)-1-methyl-1H-indazol-5-yl]pyrimidine-2,4-diamine]
18 | 7.30 to 8.00 | COc1cc(N2CCOCC2)ccc1Nc1ncc(Br)c(Nc2cc3cnn(C)c3cc2S(C)(=O)=O)n1 [Example 40, 5-bromo-N^2-(2-methoxy-4-morpholin-4-ylphenyl)-N^4-[1-methyl-6-(methylsulfonyl)-1H-indazol-5-yl]pyrimidine-2,4-diamine]
19 | 7.30 to 8.00 | COc1cc(N2CCN(C(C)C)CC2)ccc1Nc1ncc(Br)c(Nc2cc3cnn(C)c3cc2S(C)(=O)=O)n1 [Example 43, 5-bromo-N^2-[4-(4-isopropylpiperazin-1-yl)-2-methoxyphenyl]-N^4-[1-methyl-6-(methylsulfonyl)-1H-indazol-5-yl]pyrimidine-2,4-diamine]
20 | > 8.00 | CCS(=O)(=O)c1cc2c(cnn2C)cc1Nc1nc(Nc2ccc(N3CCC(N4CCN(C)CC4)CC3)cc2OC)ncc1Br [Example 46, 5-bromo-N^4-[6-(ethylsulfonyl)-1-methyl-1H-indazol-5-yl]-N^2-{2-methoxy-4-[4-(4-methylpiperazin-1-yl)piperidin-1-yl]phenyl}pyrimidine-2,4-diamine]
